Experimental data reported in ChEMBL document CHEMBL1151531, “Taxol structure-activity relationships: synthesis and biological evaluation of taxol analogs modified at C-7” (Bioorg Med Chem Lett, 1994).
Each block holds one molecule with its values, some of them ahead of it.

Tests used:
HCT-116 = test: In vitro inhibition of proliferation of human colon cancer line 116 after 72 hrs incubation.; format: functional, cell-based; details: HCT-116, 72 h
Mus musculus [1] = test: Compound was evaluated in vivo against i.p. implanetd M109 tumor on day 5 and 8 post implantation when administered i.p.; Scheduled; format: functional, organism-based
[2] = target: Tubulin alpha chain (Sus scrofa) (UniProt P02550); test: Initial tubulin polymerization rate relative to taxol.; format: functional
Chain of Tubulin alpha chain (Sus scrofa) (P02550 whole entry, looked up): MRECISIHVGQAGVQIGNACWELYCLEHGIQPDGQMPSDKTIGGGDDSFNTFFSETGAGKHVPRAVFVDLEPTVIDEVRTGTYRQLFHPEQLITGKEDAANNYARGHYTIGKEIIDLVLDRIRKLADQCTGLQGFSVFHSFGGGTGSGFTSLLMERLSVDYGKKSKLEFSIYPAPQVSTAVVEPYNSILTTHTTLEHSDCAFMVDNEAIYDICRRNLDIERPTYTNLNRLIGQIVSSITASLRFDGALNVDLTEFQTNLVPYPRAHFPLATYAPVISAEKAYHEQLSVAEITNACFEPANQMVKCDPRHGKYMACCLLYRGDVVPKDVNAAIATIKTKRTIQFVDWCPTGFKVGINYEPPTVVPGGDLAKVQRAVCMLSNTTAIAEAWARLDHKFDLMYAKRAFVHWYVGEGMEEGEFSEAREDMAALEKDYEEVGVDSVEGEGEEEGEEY

Mus musculus [3] = test: Compound was evaluated in vivo against i.p. implanetd M109 tumor on day 5 and 8 post implantation at a dose of 30 mg/kg/injection when administered i.p; format: functional; details: route intraperitoneal
Mus musculus [4] = test: Compound was evaluated in vivo against i.p. implanetd M109 tumor on day 5 and 8 post implantation at a dose of 32 mg/kg/injection when administered i.p; format: functional; details: route intraperitoneal
Mus musculus [5] = test: Compound was evaluated in vivo against i.p. implanetd M109 tumor on day 5 and 8 post implantation at a dose of 132 mg/kg/injection when administered i.p; format: functional; details: route intraperitoneal
Mus musculus [6] = test: Compound was evaluated in vivo against i.p. implanetd M109 tumor on day 5 and 8 post implantation at a dose of 64 mg/kg/injection when administered i.p; format: functional; details: route intraperitoneal
Mus musculus [7] = test: Compound was evaluated in vivo against i.p. implanetd M109 tumor on day 5 and 8 post implantation at a dose of 50 (mg/kg/inj)when administered i.p; format: functional
Mus musculus [8] = test: Compound was evaluated in vivo against i.p. implanted M109 tumor on day 5 and 8 post implantation at a dose of 50-75 mg/kg/injection when administered i.p; format: functional
Mus musculus [9] = test: Compound was evaluated in vivo against i.p. implanetd M109 tumor on day 5 and 8 post implantation at a dose of 60 mg/kg/injection when administered i.p; format: functional; details: route intraperitoneal
Mus musculus [10] = test: Compound was evaluated in vivo against i.p. implanetd M109 tumor on day 5 and 8 post implantation at a dose of 40 mg/kg/injection when administered i.p; format: functional; details: route intraperitoneal
Mus musculus [11] = test: Compound was evaluated in vivo against i.p. implanetd M109 tumor on day 5 and 8 post implantation at a dose of 80 mg/kg/injection when administered i.p; format: functional; details: route intraperitoneal

SMILES: CC(=O)O[C@@]12CO[C@@H]1C[C@H](O)[C@@]1(C)C(=O)[C@H](O)C3=C(C)[C@@H](OC(=O)[C@H](O)[C@@H](NC(=O)OC(C)(C)C)c4ccccc4)C[C@@](O)([C@@H](OC(=O)c4ccccc4)[C@H]21)C3(C)C [DOCETAXEL]
IC50 (HCT-116): 3 nM
Max T/C (Mus musculus [1]): Scheduled
Initial rate ratio [2]: 2

SMILES: CC(=O)O[C@H]1C(=O)[C@]2(C)C(OC(=O)NCCCC(=O)O)C[C@H]3OC[C@@]3(OC(C)=O)C2[C@H](OC(=O)c2ccccc2)[C@]2(O)C[C@H](OC(=O)[C@H](O)[C@@H](NC(=O)c3ccccc3)c3ccccc3)C(C)=C1C2(C)C (stereo partly drawn)
IC50 (HCT-116): > 3900 nM
Initial rate ratio [2]: 0.71

SMILES: CC(=O)O[C@H]1C(=O)[C@@]2(C)C([C@H](OC(=O)c3ccccc3)[C@]3(O)C[C@H](OC(=O)[C@H](O)[C@@H](NC(=O)c4ccccc4)c4ccccc4)C(C)=C1C3(C)C)[C@]1(OC(C)=O)CO[C@@H]1C[C@H]2F (stereo partly drawn)
IC50 (HCT-116): 11 nM
Max T/C (Mus musculus [5]): 185
Initial rate ratio [2]: 1.45

SMILES: CC(=O)O[C@H]1C(=O)[C@]2(C)C(OC(=O)NCCN(C)C)C[C@H]3OC[C@@]3(OC(C)=O)C2[C@H](OC(=O)c2ccccc2)[C@]2(O)C[C@H](OC(=O)[C@H](O)[C@@H](NC(=O)c3ccccc3)c3ccccc3)C(C)=C1C2(C)C (stereo partly drawn)
IC50 (HCT-116): > 100 nM
Initial rate ratio [2]: 0.4

SMILES: CC(=O)O[C@H]1C(=O)[C@]2(C)CC[C@H]3OC[C@@]3(OC(C)=O)C2[C@H](OC(=O)c2ccccc2)[C@]2(O)C[C@H](OC(=O)[C@H](O)[C@@H](NC(=O)OC(C)(C)C)c3ccccc3)C(C)=C1C2(C)C (stereo partly drawn)
IC50 (HCT-116): 1.6 nM
Max T/C (Mus musculus [6]): 156
Initial rate ratio [2]: 0.8

SMILES: CC(=O)O[C@H]1C(=O)[C@]2(C)CC[C@H]3OC[C@@]3(OC(C)=O)C2[C@H](OC(=O)c2ccccc2)[C@]2(O)C[C@H](OC(=O)[C@H](O)[C@@H](NC(=O)c3ccccc3)c3ccccc3)C(C)=C1C2(C)C (stereo partly drawn)
IC50 (HCT-116): 4 nM
Max T/C (Mus musculus [7]): 157
Initial rate ratio [2]: 0.23

SMILES: CC(=O)O[C@H]1C(=O)[C@]2(C)C(O[Si](C)(C)c3ccccc3)C[C@H]3OC[C@@]3(OC(C)=O)C2[C@H](OC(=O)c2ccccc2)[C@]2(O)C[C@H](OC(=O)[C@H](O)[C@@H](NC(=O)c3ccccc3)c3ccccc3)C(C)=C1C2(C)C (stereo partly drawn)
IC50 (HCT-116): > 78 nM
Initial rate ratio [2]: 0

SMILES: CC(=O)O[C@H]1C(=O)[C@@]2(C)[C@H]([C@H](OC(=O)c3ccccc3)[C@]3(O)C[C@H](OC(=O)[C@H](O)[C@@H](NC(=O)c4ccccc4)c4ccccc4)C(C)=C1C3(C)C)[C@]1(OC(C)=O)CO[C@@H]1C[C@@H]2O [PACLITAXEL]
Max T/C (Mus musculus [8]): 276

SMILES: CC(=O)O[C@H]1C(=O)[C@]2(C)C=C[C@H]3OC[C@@]3(OC(C)=O)C2[C@H](OC(=O)c2ccccc2)[C@]2(O)C[C@H](OC(=O)[C@H](O)[C@@H](NC(=O)c3ccccc3)c3ccccc3)C(C)=C1C2(C)C (stereo partly drawn)
IC50 (HCT-116): 5 nM
Max T/C (Mus musculus [9]): 161
Initial rate ratio [2]: 1.31

SMILES: CC(=O)O[C@H]1C(=O)[C@@]2(C)C([C@H](OC(=O)c3ccccc3)[C@]3(O)C[C@H](OC(=O)[C@H](O)[C@@H](NC(=O)OC(C)(C)C)c4ccccc4)C(C)=C1C3(C)C)[C@]1(OC(C)=O)CO[C@@H]1C[C@H]2F (stereo partly drawn)
IC50 (HCT-116): 4.7 nM
Max T/C (Mus musculus [10]): 147
Initial rate ratio [2]: 0.8

SMILES: CC(=O)O[C@H]1C(=O)[C@]23C[C@H]2C[C@H]2OC[C@@]2(OC(C)=O)C3[C@H](OC(=O)c2ccccc2)[C@]2(O)C[C@H](OC(=O)[C@H](O)[C@@H](NC(=O)c3ccccc3)c3ccccc3)C(C)=C1C2(C)C (stereo partly drawn)
IC50 (HCT-116): 8 nM
Max T/C (Mus musculus [11]): 156
Initial rate ratio [2]: 0.56

The next lines start with results.

IC50 (HCT-116): 2 nM
SMILES: CC(=O)O[C@H]1C(=O)[C@@]2(C)C([C@H](OC(=O)c3ccccc3)[C@]3(O)C[C@H](OC(=O)[C@H](O)[C@@H](NC(=O)c4ccccc4)c4ccccc4)C(C)=C1C3(C)C)[C@]1(OC(C)=O)CO[C@@H]1C[C@H]2O (stereo partly drawn)
Max T/C (Mus musculus [3]): 126
Max T/C (Mus musculus [4]): 154

IC50 (HCT-116): 46 nM
Initial rate ratio [2]: 0.96
SMILES: CCCCNC(=O)OC1C[C@H]2OC[C@@]2(OC(C)=O)C2[C@H](OC(=O)c3ccccc3)[C@]3(O)C[C@H](OC(=O)[C@H](O)[C@@H](NC(=O)c4ccccc4)c4ccccc4)C(C)=C([C@@H](OC(C)=O)C(=O)[C@]12C)C3(C)C (stereo partly drawn)

IC50 (HCT-116): 7 nM
Initial rate ratio [2]: 0.81
SMILES: CC(=O)O[C@H]1C(=O)[C@@]2(C)C([C@H](OC(=O)c3ccccc3)[C@]3(O)C[C@H](OC(=O)[C@H](O)[C@@H](NC(=O)c4ccccc4)c4ccccc4)C(C)=C1C3(C)C)[C@]1(OC(C)=O)CO[C@@H]1C[C@@H]2OC(=O)CCl (stereo partly drawn)

IC50 (HCT-116): > 60 nM
Initial rate ratio [2]: 0
SMILES: CC(=O)O[C@H]1C(=O)[C@]2(C)C(O[Si](C)(C)C)C[C@H]3OC[C@@]3(OC(C)=O)C2[C@H](OC(=O)c2ccccc2)[C@]2(O)C[C@H](OC(=O)[C@H](O)[C@@H](NC(=O)c3ccccc3)c3ccccc3)C(C)=C1C2(C)C (stereo partly drawn)

Initial rate ratio [2]: 1.1
SMILES: CC(=O)O[C@H]1C(=O)[C@@]2(C)C([C@H](OC(=O)c3ccccc3)[C@]3(O)C[C@H](OC(=O)[C@H](O)[C@@H](NC(=O)c4ccccc4)c4ccccc4)C(C)=C1C3(C)C)[C@]1(OC(C)=O)CO[C@@H]1C[C@@H]2OS(C)(=O)=O (stereo partly drawn)

IC50 (HCT-116): > 78 nM
Initial rate ratio [2]: 0.53
SMILES: CC[Si](CC)(CC)OC1C[C@H]2OC[C@@]2(OC(C)=O)C2[C@H](OC(=O)c3ccccc3)[C@]3(O)C[C@H](OC(=O)[C@H](O)[C@@H](NC(=O)c4ccccc4)c4ccccc4)C(C)=C([C@@H](OC(C)=O)C(=O)[C@]12C)C3(C)C (stereo partly drawn)

IC50 (HCT-116): 6 nM
Initial rate ratio [2]: 0.72
SMILES: CCOC(=O)O[C@H]1C[C@H]2OC[C@@]2(OC(C)=O)C2[C@H](OC(=O)c3ccccc3)[C@]3(O)C[C@H](OC(=O)[C@H](O)[C@@H](NC(=O)c4ccccc4)c4ccccc4)C(C)=C([C@@H](OC(C)=O)C(=O)[C@@]21C)C3(C)C (stereo partly drawn)
Max T/C (Mus musculus [10]): 289
